Measurements from patent US20100099692A1, “HARMFUL ORGANISM CONTROL COMPOSITION” (priority 2007, published 2010).

Assays:
[1] = system: Bemisia tabaci imagoes; assay: Test Example 1: cabbage leaf disc immersion test on Bemisia tabaci imagoes, controlling value after 4 days; assay type: in vivo; details: foliar, 96 h, cabbage leaf disc immersed 30 seconds; for pest or weed control at 400 ppm: compound I alone 400 ppm
[2] = system: Bemisia tabaci imagoes; assay: Test Example 2: cabbage leaf disc immersion test on Bemisia tabaci imagoes, controlling value after 2 days; assay type: in vivo; details: cabbage leaf disc immersed 30 seconds

Row | Compound | pest or weed control at 400 ppm [1] | also measured
1 | COC(=O)N(C)N(C)C(=O)c1cc(Cl)cc(C)c1NC(=O)c1cc(Br)nn1-c1ncccc1Cl [compound I-(119)] | 100% | 
2 | COC(=O)NNC(=O)c1cc(Cl)cc(C)c1NC(=O)c1cc(C(F)(F)F)nn1-c1ncccc1Cl [compound I-(5)] | 100% | 
3 | COC(=O)NNC(=O)c1cc(Cl)cc(Br)c1NC(=O)c1cc(Br)nn1-c1ncccc1Cl [compound I-(70)] | 90% | 
4 | COC(=O)N(C)N(C)C(=O)c1cc(Br)cc(Br)c1NC(=O)c1cc(Br)nn1-c1ncccc1Cl [compound I-(204)] | 100% | 
5 | COC(=O)NNC(=O)c1cc(Br)cc(C)c1NC(=O)c1cc(C(F)(F)F)nn1-c1ncccc1Cl [compound I-(74)] | 100% | 
6 | COC(=O)NNC(=O)c1cc(C#N)cc(C)c1NC(=O)c1cc(Br)nn1-c1ncccc1Cl [compound I-(117)] | 86% | 
7 | COC(=O)N(C)NC(=O)c1cc(Br)cc(Br)c1NC(=O)c1cc(Br)nn1-c1ncccc1Cl [compound I-(213)] | 100% | 
8 | COC(=O)NN(C)C(=O)c1cc(Cl)cc(C)c1NC(=O)c1cc(Br)nn1-c1ncccc1Cl [compound I-(115)] | 51% | 
9 | COC(=O)NNC(=O)c1cc(Cl)cc(C)c1NC(=O)c1cc(Br)nn1-c1ncccc1Cl [compound I-(34)] | 100% | 
10 | COC(=O)NN(C)C(=O)c1cc(C#N)cc(C)c1NC(=O)c1cc(Br)nn1-c1ncccc1Cl [compound I-(138)] |  | Pest controlling value (%) ([2]; compound I-(138) alone 800 ppm): 33%
11 | COC(=O)NNC(=O)c1cc(Br)cc(Br)c1NC(=O)c1cc(Br)nn1-c1ncccc1Cl [compound I-(68)] | 95% | 
12 | CC#CCOc1ncnc(N2CC(C)CC(C)C2)c1F (stereo not shown) [compound X, 4-(2-butynyloxy)-5-fluoro-6-(3,5-dimethylpiperidino)pyrimidine] |  | Pest controlling value (%) ([2]; compound X alone 2000 ppm): 75%; pest or weed control at 1000 ppm ([1]; compound X alone 1000 ppm): 23%
